System: 356 CRISPRi constructs in E. coli ΔtolC-pore
Experiment: CRISPRi collection fitness screen with sub-inhibitory compound
Type: cell-based
Details: for Growth represented as mean colony biomass: 1μg/ml MAC0452936, 6ng/ml LolCDE-in-1, 250 ng/ml Vancomycin, 7 ng/ml CHIR090, n=4; for Growth, mean colony biomass (n=4): + 6ng/ml LolCDE-in-1
Method in brief: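 Mobile CRISPRi collection conjugated into the ΔtolC-pore strain and pinned on agar at 1536 density in technical quadruplicate with a sub-inhibitory MAC-0452936 concentration. No CRISPRi induction; only basal 5–10% knockdown.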

[1] = sub-inhibitory (¼ MIC) concentration, LB agar, basal knockdown

Fc1ccc(COc2cccc(-c3[nH]ncc3-c3ccncc3)c2)cc1 [LolCDE-in-1]
Growth represented as mean colony biomass (gRNA accA): 1.008 | Growth, mean colony biomass (n=4) (gRNA aceF): 1.072 | Growth, mean colony biomass (n=4) (gRNA alaS): 1.101 | Growth, mean colony biomass (n=4) (gRNA argS): 1.113 | Growth, mean colony biomass (n=4) (gRNA asnS): 1.091 | Growth, mean colony biomass (n=4) (gRNA bamA): 1.074 | Growth, mean colony biomass (n=4) (gRNA bamD): 0.9928 | Growth, mean colony biomass (n=4) (gRNA bioA): 1.016 | Growth, mean colony biomass (n=4) (gRNA can): 1.04 | Growth represented as mean colony biomass (gRNA cca): 1 | Growth represented as mean colony biomass (gRNA coaA): 1.117 | Growth, mean colony biomass (n=4) (gRNA csrA): 0.5912 | Growth represented as mean colony biomass (gRNA cydA): 1.002 | Growth represented as mean colony biomass (gRNA cydX): 0.9564 | Growth represented as mean colony biomass (gRNA dapD): 0.9627 | Growth represented as mean colony biomass (gRNA dapE): 0.9407 | Growth represented as mean colony biomass (gRNA der): 0.9198 | Growth represented as mean colony biomass (gRNA dfp): 0.9029 | Growth, mean colony biomass (n=4) (gRNA dnaC): 1.011 | Growth represented as mean colony biomass (gRNA dnaE): 1.003 | Growth represented as mean colony biomass (gRNA dnaN): 0.9294 | Growth represented as mean colony biomass (gRNA dnaX): 0.8532 | Growth, mean colony biomass (n=4) (gRNA dut): 1.113 | Growth represented as mean colony biomass (gRNA eno): 1.0061 | Growth represented as mean colony biomass (gRNA era): 0.9669 | Growth represented as mean colony biomass (gRNA fabA): 0.9879 | Growth represented as mean colony biomass (gRNA fabG): 0.9717 | Growth represented as mean colony biomass (gRNA fabI): 0.9771 | Growth represented as mean colony biomass (gRNA fdx): 0.998 | Growth represented as mean colony biomass (gRNA fldA): 1.014 | Growth, mean colony biomass (n=4) (gRNA folA): 1.074 | Growth represented as mean colony biomass (gRNA folB): 1.004 | Growth, mean colony biomass (n=4) (gRNA folC): 0.9924 | Growth represented as mean colony biomass (gRNA folE): 1.028 | Growth represented as mean colony biomass (gRNA folP): 1.013 | Growth represented as mean colony biomass (gRNA frr): 0.8456 | Growth, mean colony biomass (n=4) (gRNA ftsA): 0.866 | Growth represented as mean colony biomass (gRNA gapA): 0.9875 | Growth, mean colony biomass (n=4) (gRNA glmS): 1.023 | Growth represented as mean colony biomass (gRNA glmU): 0.9948 | Growth represented as mean colony biomass (gRNA gltX): 1.01 | Growth, mean colony biomass (n=4) (gRNA glyA): 0.9609 | Growth represented as mean colony biomass (gRNA groS): 0.8911 | Growth represented as mean colony biomass (gRNA grpE): 0.9325 | Growth represented as mean colony biomass (gRNA guaA): 1.005 | Growth, mean colony biomass (n=4) (gRNA hemD): 1.064 | Growth represented as mean colony biomass (gRNA hemG): 0.9487 | Growth represented as mean colony biomass (gRNA hemH): 0.9202 | Growth represented as mean colony biomass (gRNA hemL): 0.9936 | Growth represented as mean colony biomass (gRNA higA): 0.9523 | Growth represented as mean colony biomass (gRNA hisS): 0.9867 | Growth represented as mean colony biomass (gRNA holD): 1.037 | Growth represented as mean colony biomass (gRNA hscA): 1.068 | Growth, mean colony biomass (n=4) (gRNA infA): 1.13 | Growth represented as mean colony biomass (gRNA infC): 0.9943 | Growth represented as mean colony biomass (gRNA iscU): 0.9298 | Growth represented as mean colony biomass (gRNA ispB): 0.9724 | Growth represented as mean colony biomass (gRNA ispF): 0.9965 | Growth, mean colony biomass (n=4) (gRNA leuS): 1.148 | Growth, mean colony biomass (n=4) (gRNA lexA): 0.4661 | Growth represented as mean colony biomass (gRNA lolC): 0.5845 | Growth, mean colony biomass (n=4) (gRNA lptA): 1.047 | Growth, mean colony biomass (n=4) (gRNA lptB): 0.9337 | Growth represented as mean colony biomass (gRNA lptC): 0.8997 | Growth represented as mean colony biomass (gRNA lptE): 0.9982 | Growth represented as mean colony biomass (gRNA lptF): 0.9678 | Growth represented as mean colony biomass (gRNA lptG): 1.0135 | Growth represented as mean colony biomass (gRNA lpxC): 0.9296 | Growth represented as mean colony biomass (gRNA lpxD): 0.9894 | Growth, mean colony biomass (n=4) (gRNA mnmA): 1.137 | Growth, mean colony biomass (n=4) (gRNA mrdB): 0.9351 | Growth represented as mean colony biomass (gRNA mreB): 0.9708 | Growth represented as mean colony biomass (gRNA mreC): 0.8551 | Growth, mean colony biomass (n=4) (gRNA msbA): 1.057 | Growth, mean colony biomass (n=4) (gRNA mukF): 0.8694 | Growth represented as mean colony biomass (gRNA murB): 1.046 | Growth represented as mean colony biomass (gRNA murC): 0.881 | Growth, mean colony biomass (n=4) (gRNA murI): 0.5015 | Growth, mean colony biomass (n=4) (gRNA nadK): 1.043 | Growth represented as mean colony biomass (gRNA nusB): 0.9929 | Growth represented as mean colony biomass (gRNA plsB): 0.8854 | Growth, mean colony biomass (n=4) (gRNA prmC): 1.031 | Growth represented as mean colony biomass (gRNA proS): 1.0017 | Growth, mean colony biomass (n=4) (gRNA psd): 1.234 | Growth, mean colony biomass (n=4) (gRNA pssA): 0.9781 | Growth, mean colony biomass (n=4) (gRNA ptsI): 1.151 | Growth represented as mean colony biomass (gRNA racR): 0.9577 | Growth, mean colony biomass (n=4) (gRNA rho): 1.25 | Growth represented as mean colony biomass (gRNA ribA): 0.9663 | Growth represented as mean colony biomass (gRNA ribC): 0.899 | Growth, mean colony biomass (n=4) (gRNA ribD): 1.034 | Growth represented as mean colony biomass (gRNA ribF): 0.9681 | Growth represented as mean colony biomass (gRNA rimM): 1.015 | Growth represented as mean colony biomass (gRNA rluD): 1.0361 | Growth, mean colony biomass (n=4) (gRNA rne): 1.086 | Growth represented as mean colony biomass (gRNA rpe): 1.032 | Growth, mean colony biomass (n=4) (gRNA rplA): 1.044 | Growth represented as mean colony biomass (gRNA rplD): 0.9769 | Growth represented as mean colony biomass (gRNA rplE): 0.973 | Growth represented as mean colony biomass (gRNA rplJ): 0.9047 | Growth represented as mean colony biomass (gRNA rplO): 0.9645 | Growth, mean colony biomass (n=4) (gRNA rplP): 1.111 | Growth represented as mean colony biomass (gRNA rplQ): 1.063 | Growth represented as mean colony biomass (gRNA rplS): 0.9823 | Growth, mean colony biomass (n=4) (gRNA rplV): 1.159 | Growth, mean colony biomass (n=4) (gRNA rplX): 1.003 | Growth represented as mean colony biomass (gRNA rplY): 1.022 | Growth, mean colony biomass (n=4) (gRNA rpmC): 1.247 | Growth represented as mean colony biomass (gRNA rpmH): 0.9499 | Growth represented as mean colony biomass (gRNA rpmI): 0.8822 | Growth, mean colony biomass (n=4) (gRNA rpoC): 0.9718 | Growth, mean colony biomass (n=4) (gRNA rpoE): 1.012 | Growth represented as mean colony biomass (gRNA rpoH): 1.025 | Growth, mean colony biomass (n=4) (gRNA rpsC): 0.9823 | Growth, mean colony biomass (n=4) (gRNA rpsD): 1.397 | Growth represented as mean colony biomass (gRNA rpsE): 1.159 | Growth represented as mean colony biomass (gRNA rpsF): 1.092 | Growth, mean colony biomass (n=4) (gRNA rpsG): 0.9387 | Growth represented as mean colony biomass (gRNA rpsH): 1.028 | Growth, mean colony biomass (n=4) (gRNA rpsK): 1.066 | Growth, mean colony biomass (n=4) (gRNA rpsL): 0.9811 | Growth, mean colony biomass (n=4) (gRNA rpsM): 1.056 | Growth, mean colony biomass (n=4) (gRNA rpsR): 1.049 | Growth, mean colony biomass (n=4) (gRNA rpsT): 1.1909 | Growth represented as mean colony biomass (gRNA rsgA): 0.9518 | Growth represented as mean colony biomass (gRNA safA): 0.9369 | Growth, mean colony biomass (n=4) (gRNA secA): 1.053 | Growth represented as mean colony biomass (gRNA secY): 1.019 | Growth represented as mean colony biomass (gRNA serS): 1.011 | Growth represented as mean colony biomass (gRNA ssb): 1.001 | Growth represented as mean colony biomass (gRNA sucA): 0.955 | Growth, mean colony biomass (n=4) (gRNA suhB): 0.9525 | Growth represented as mean colony biomass (gRNA tilS): 0.9992 | Growth represented as mean colony biomass (gRNA tonB): 0.9792 | Growth represented as mean colony biomass (gRNA trmD): 0.9503 | Growth represented as mean colony biomass (gRNA tsaB): 1.056 | Growth represented as mean colony biomass (gRNA tsaD): 0.9679 | Growth, mean colony biomass (n=4) (gRNA tsaE): 1 | Growth represented as mean colony biomass (gRNA tsf): 1.027 | Growth represented as mean colony biomass (gRNA tusE): 1.013 | Growth represented as mean colony biomass (gRNA tyrS): 1.017 | Growth represented as mean colony biomass (gRNA ubiB): 0.9814 | Growth represented as mean colony biomass (gRNA ubiD): 0.9742 | Growth, mean colony biomass (n=4) (gRNA waaA): 1.024 | Growth represented as mean colony biomass (gRNA ydaS): 0.9646 | Growth represented as mean colony biomass (gRNA ydcD): 0.9635 | Growth represented as mean colony biomass (gRNA ydhL): 0.9757 | Growth, mean colony biomass (n=4) (gRNA yedN): 1.025 | Growth represented as mean colony biomass (gRNA yejM): 1.046 | Growth represented as mean colony biomass (gRNA yffS): 1.013 | Growth represented as mean colony biomass (gRNA ygeF): 0.9624 | Growth, mean colony biomass (n=4) (gRNA ygeN): 1.008 | Growth represented as mean colony biomass (gRNA yidC): 0.8393 | Growth represented as mean colony biomass (gRNA ymfE): 0.903 | Growth represented as mean colony biomass (gRNA ymiB): 0.9243 | Growth, mean colony biomass (n=4) (gRNA yqeL): 1.1914 | Growth represented as mean colony biomass (gRNA yqgF): 0.9509 | Growth, mean colony biomass (n=4) (gRNA zipA): 1.134 | growth defect of CRISPRi strains for the compound's molecular target (LolCDE complex and LpxC, respectively) [1]: strongest growth defect | growth defect of the lgt CRISPRi mutant in the presence of compound [1]: did not demonstrate a growth defect

Reference: article PMC11456916, “A screen for cell envelope stress uncovers an inhibitor of prolipoprotein diacylglyceryl transferase, Lgt, in Escherichiacoli” (iScience, 2024)
